Source: patent US20100120738A1, “ANTI-APOPTOTIC BENZODIAZEPINE RECEPTOR LIGAND INHIBITORS” (priority 2006, published 2010)
pIC50: −log10 of the molar value. Where two headings read alike, the source gives them in different places.

Assays:
[1] = Brain uptake (brain level over plasma level); assay type: in vivo; conditions: above 20 ul/g indicates delivery across the blood-brain barrier
Experimental: In further studies, compounds are administered orally to animals as described above, or alternatively, by daily i.p. injection for up to five days at concentrations of about 0.3 mg/kg body weight, 3.0 mg/kg and 30 mg/kg. The animals are then sacrificed and their brains removed and snap-frozen in liquid nitrogen. The brains are homogenized in methanol containing 5% TCA, and the soluble fraction is prepared by centrifugation.
Levels of compounds in the brain tissue are determined by LC-MS (HPLLC, Waters; Mass Spectrometer, Micromass Quattro). The half-life of each compound administered to the animals is determined over a period of time from about 5 minutes up to about 2 days.
Brain bioavailability is determined by calculating brain uptake at all time points. Brain uptake is the ratio of brain levels (as moles/g tissue) over plasma levels (as […] and is expressed as ul/g. One gram of brain tissue contains approximately 20 ul of plasma. Thus, any brain uptake value above 20 ul/g is indicative of delivery across the blood-brain barrier to the brain parenchyma. For example, the brain uptake values for EUK-418 are in excess of about 100 ul/g.

[2] = Lipophilicity by octanol partitioning; assay type: physicochemical; conditions: octanol-water
Experimental: To indicate the likelihood that the compounds will cross lipid membranes and be absorbed once administered by oral means, their lipophilicities were determined by octanol partitioning. […] Quantitation was performed by HPLC-UV.

[3] = Oral bioavailability in vivo, plasma levels by LC-MS/MS after intragastric gavage; parameters: species or system rat
Experimental: FIG. 18 is a graphical representation showing the bioavailability in vivo for the compounds {[{(Porphine-5,15-diyl)bis[cyclopropyl-diyl]}](2-)-N^21,N^22,N^23,N^24} manganese(III) acetate (EUK-418) and {[{(Porphine-5,15-diyl)bis[benzyl-diyl]}](2-)-N^21,N^22,N^23,N^24} manganese(III) acetate (EUK-423) in rats. Fasted and fed Sprague-Dawley rats were dosed by intragastric gavage with either 4 mg/kg EUK-418 or 2 mg/kg EUK-423. At the times indicated on the x-axis, plasma was obtained from the animals and the concentrations of compounds determined by LC-MS/MS.
Fasted and fed Sprague-Dawley rats were dosed by intragastric gavage with either 4 mg/kg EUK-418 or 2 mg/kg EUK-423. At time points up to 7 hr post-administration, animals were sacrificed, their blood collected over heparin, plasma samples prepared by centrifugation, and plasma levels of the compounds were determined by LC-MS/MS.

[4] = Superoxide dismutase (SOD) activity; assay type: biochemical
PC12 cells = assay: Protection against STS-induced apoptosis in PC12 cells (XTT viability assay); assay type: cell-based, rat
Experimental: Rat pheochromocytoma (PC12) cells were cultured in collagen-coated 96-well plates according to directions provided by the American Type Culture Collection. Staurosporine was added at various concentrations sufficient to induce apoptosis. Test compounds were added together with the staurosporine. Cells were incubated overnight at 37° C., 5% CO2. After 18-24 hours, test media was removed and cell viability was determined using the XTT viability assay described by Baker et al., J. Pharmacol. Exp, Therapeutics 284, 215-221, 1998, the contents of which are incorporated herein by reference.

[5] = Stability in USP simulated gastric fluid (SGF); assay type: in vitro ADME; conditions: 37° C., pH approx. 1.2
Description: Aliquots of SGF were withdrawn and intact compound quantitated by HPLC-UV.

[6] = tested on: Bovine capillary endothelial cells; assay: Cytotoxicity/necrosis of non-irradiated cells (LDH release, field number); assay type: cell-based
Experimental: Bovine capillary endothelial cells were cultured on eight-chamber Labtek slides and exposed to ionizing radiation (20 Gy), which was calibrated using an X-ray exposure meter. […] In control experiments, cells either received no ionizing radiation (sham) or no compound. After 6 h incubation, the cells were fixed in methanol and stained with 5 μg/ml 4,6-diamidino-2-phenylindole (DAPI). DNA was visualized using a Nikon epifluorescence microscope, and apoptosis was scored and expressed as an apoptotic index (% apoptotic cells in a field of 100). […] Field number was also calculated for all other compounds tested as a control (results not shown).
To determine cytotoxicity of the compounds under these conditions, duplicate samples of the cells receiving a dose of compound at each concentration tested in the absence of a dose of ionizing radiation were assayed for release of LDH into the culture medium.

[7] = tested on: cultured mesencephalic tissue slices; assay: MPP+ induced neurodegeneration in cultured mesencephalic tissue slices (LDH release); assay type: cell-based, rat; conditions: 20 μM MPP+; compound 100 nM, 1.0 μM, 10 μM; FIG. 17
Experimental: FIG. 17 is a graphical representation showing the effects of exemplary low molecular weight metalloporphyrin compounds of the present invention on MPP+ induced neurodegeneration in cultured mesencephalic tissue slices. Mesencephalic tissue slices were prepared from PND 3-5 rats and maintained in culture for 2 weeks. The tissue slices were incubated with a porphyrin compound as indicated on the x-axis for 6 hours before adding 20 μM MPP+ to induce neuronal apoptosis. Concentrations of each porphyrin compound tested were 100 nM ? 1.0 μM ? and 10 μM ? Following a further incubation for 48 hours, the slices were collected and the level of lactate dehydrogenase (LDH) released into the medium was determined.

[8] = tested on: Bovine capillary endothelial cells; assay: Protection against radiation-induced apoptosis (DAPI apoptotic index); assay type: cell-based; conditions: low doses; FIG. 13 and FIG. 14
Experimental: Bovine capillary endothelial cells were cultured on eight chamber Labtek slides and exposed to ionizing radiation (20 Gy) for 6 hours. After this time, cells were either left untreated or treated with compound at the concentration indicated on the x-axis. Cells were then fixed in methanol and stained with 5 μg/ml DAPI and DNA was visualized using a Nikon epifluorescence microscope, and apoptosis scored and expressed as an apoptotic index according to the percentage of apoptotic cells in a field of 100 cells. Open bars indicate apoptotic index following irradiation. Hatched bars indicate apoptotic index for control cells not receiving a dose of ionizing radiation.
Bovine capillary endothelial cells were cultured on eight-chamber Labtek slides and exposed to ionizing radiation (20 Gy), which was calibrated using an X-ray exposure meter. […] In control experiments, cells either received no ionizing radiation (sham) or no compound. After 6 h incubation, the cells were fixed in methanol and stained with 5 μg/ml 4,6-diamidino-2-phenylindole (DAPI). DNA was visualized using a Nikon epifluorescence microscope, and apoptosis was scored and expressed as an apoptotic index (% apoptotic cells in a field of 100).

C1=Cc2nc1cc1ccc([n-]1)c(C1CC1)c1nc(cc3ccc([n-]3)c2C2CC2)C=C1.CC(=O)[O-].[Mn+3] [EUK-418, {[{(Porphine-5,15-diyl)bis[cyclopropyl-diyl]}](2-)-N^21,N^22,N^23,N^24} manganese(III) acetate]
brain uptake value (brain level / plasma level) [1]: > 100 µL/g | Log10 P value [2]: 0.548 ± 0.009 | P value (octanol partitioning coefficient) [2]: 3.53 ± 0.14 | effect of fasting of animals on plasma concentration ([3]; 4 mg/kg intragastric gavage): increase plasma concentration | plasma concentration to which compound declined for the assayed period ([3]; 4 mg/kg intragastric gavage, fasted rats, up to 7 hr): about 100 ng/ml | plasma time course ([3]; intragastric gavage, 4 mg/kg EUK-418 or 2 mg/kg EUK-423): increased rapidly in serum of fasted rats | found in plasma / bioavailable after oral administration ([3]; intragastric gavage, 4 mg/kg EUK-418 or 2 mg/kg EUK-423, fasted and fed rats): bioavailable in vivo | pIC50 ([4]; cuvette format, read-out: Cuvette IC50): 5.08 | pIC50 ([4]; microplate format, read-out: Microplate IC50): 6.42 | effect on staurosporine-induced apoptosis of PC12 cells (PC12 cells; FIG. 11): effectively reduce apoptosis | effect on staurosporine-induced apoptosis of PC12 cells (PC12 cells; FIG. 12, at up to about 5 μM concentration, toxicity blunts protection at high concentrations): effectively reduce apoptosis | Percentage remaining after 90 mins in SGF [5]: 92.2% | necrosis at the protective concentration ([6]; 3 μM EUK-418, about 3-10 μM EUK-423): failed to induce noticeable necrosis | concentration causing significant increase in field number for control cells, indicating cytotoxicity ([6]; control cells without ionizing radiation): ≥ 30 µM | prevention of cytotoxicity induced by MPP+ [7]: prevent cytotoxicity | protection of cells exposed to ionizing radiation [8]: protected
